Results reported in patent US11208412B2 (DAEGU-GYEONGBUK MEDICAL INNOVATION FOUNDATION, priority 2017, dated 2021).

Assays:
Assay in all cases: Kinase selectivity, DiscoverX scanMAX Kinase assay panel (% control)
Type in all cases: binding
[1] = molecular target: T1, kinases of the scanMAX Kinase assay panel (Homo sapiens, UniProt Q9H4B4); conditions: PLK3; 1 uM
T1 construct: purchased DiscoverX Co. (contract measurement) scanMAX Kinase assay panel
How it was run: (§1)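 Binding-panel profiling at one concentration, 1 uM in DMSO; values are % of DMSO control after subtracting the positive-control floor. Less than 35% means activity on that kinase.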

[2] = molecular target: T2, kinases of the scanMAX Kinase assay panel (Homo sapiens, UniProt P37173); conditions: kinase TGFBR2; 1 uM in DMSO
T2 construct: purchased DiscoverX Co. (contract measurement) scanMAX Kinase assay panel
T2 sequence (P37173 23-567): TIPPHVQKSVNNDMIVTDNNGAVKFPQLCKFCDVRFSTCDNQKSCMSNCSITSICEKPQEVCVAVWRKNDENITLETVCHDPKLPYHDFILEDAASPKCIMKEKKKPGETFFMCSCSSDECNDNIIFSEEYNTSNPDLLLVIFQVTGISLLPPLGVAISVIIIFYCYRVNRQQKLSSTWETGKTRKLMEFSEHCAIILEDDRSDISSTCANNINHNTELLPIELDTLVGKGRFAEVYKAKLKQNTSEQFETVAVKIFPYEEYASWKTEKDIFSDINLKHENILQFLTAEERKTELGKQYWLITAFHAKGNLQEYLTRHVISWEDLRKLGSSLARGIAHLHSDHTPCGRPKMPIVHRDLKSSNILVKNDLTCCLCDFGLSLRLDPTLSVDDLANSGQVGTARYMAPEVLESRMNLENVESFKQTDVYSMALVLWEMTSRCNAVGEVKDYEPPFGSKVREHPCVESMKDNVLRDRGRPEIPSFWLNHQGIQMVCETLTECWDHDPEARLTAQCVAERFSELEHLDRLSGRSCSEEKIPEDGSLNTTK
How it was run: as §1

[3] = molecular target: T3, kinases of the scanMAX Kinase assay panel (Homo sapiens, UniProt P24723); conditions: PRKCH; 1 uM
T3 construct: purchased DiscoverX Co. (contract measurement) scanMAX Kinase assay panel
T3 sequence (P24723 whole entry): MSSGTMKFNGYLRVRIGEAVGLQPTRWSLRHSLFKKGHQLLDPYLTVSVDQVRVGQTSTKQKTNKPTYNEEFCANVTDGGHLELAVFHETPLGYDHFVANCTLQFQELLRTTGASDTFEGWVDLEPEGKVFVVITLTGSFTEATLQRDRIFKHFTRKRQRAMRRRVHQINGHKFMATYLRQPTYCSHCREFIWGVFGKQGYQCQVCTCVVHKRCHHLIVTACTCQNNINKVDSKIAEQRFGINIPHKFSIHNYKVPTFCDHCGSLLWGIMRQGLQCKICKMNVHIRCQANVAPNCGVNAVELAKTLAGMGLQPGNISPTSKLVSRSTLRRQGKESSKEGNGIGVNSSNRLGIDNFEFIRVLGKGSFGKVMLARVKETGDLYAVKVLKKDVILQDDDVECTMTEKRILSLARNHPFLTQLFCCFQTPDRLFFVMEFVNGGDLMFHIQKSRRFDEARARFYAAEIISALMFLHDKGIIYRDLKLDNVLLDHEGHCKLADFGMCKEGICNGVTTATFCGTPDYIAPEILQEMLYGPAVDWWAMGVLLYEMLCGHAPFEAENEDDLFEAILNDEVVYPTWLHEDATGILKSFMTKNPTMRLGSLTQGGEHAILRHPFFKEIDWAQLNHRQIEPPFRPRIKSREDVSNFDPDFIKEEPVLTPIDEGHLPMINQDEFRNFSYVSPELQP
How it was run: as §1

[4] = molecular target: T4, kinases of the scanMAX Kinase assay panel (Homo sapiens, UniProt Q14004); conditions: CDC2L5; 1 uM
T4 construct: purchased DiscoverX Co. (contract measurement) scanMAX Kinase assay panel
T4 sequence (Q14004 whole entry): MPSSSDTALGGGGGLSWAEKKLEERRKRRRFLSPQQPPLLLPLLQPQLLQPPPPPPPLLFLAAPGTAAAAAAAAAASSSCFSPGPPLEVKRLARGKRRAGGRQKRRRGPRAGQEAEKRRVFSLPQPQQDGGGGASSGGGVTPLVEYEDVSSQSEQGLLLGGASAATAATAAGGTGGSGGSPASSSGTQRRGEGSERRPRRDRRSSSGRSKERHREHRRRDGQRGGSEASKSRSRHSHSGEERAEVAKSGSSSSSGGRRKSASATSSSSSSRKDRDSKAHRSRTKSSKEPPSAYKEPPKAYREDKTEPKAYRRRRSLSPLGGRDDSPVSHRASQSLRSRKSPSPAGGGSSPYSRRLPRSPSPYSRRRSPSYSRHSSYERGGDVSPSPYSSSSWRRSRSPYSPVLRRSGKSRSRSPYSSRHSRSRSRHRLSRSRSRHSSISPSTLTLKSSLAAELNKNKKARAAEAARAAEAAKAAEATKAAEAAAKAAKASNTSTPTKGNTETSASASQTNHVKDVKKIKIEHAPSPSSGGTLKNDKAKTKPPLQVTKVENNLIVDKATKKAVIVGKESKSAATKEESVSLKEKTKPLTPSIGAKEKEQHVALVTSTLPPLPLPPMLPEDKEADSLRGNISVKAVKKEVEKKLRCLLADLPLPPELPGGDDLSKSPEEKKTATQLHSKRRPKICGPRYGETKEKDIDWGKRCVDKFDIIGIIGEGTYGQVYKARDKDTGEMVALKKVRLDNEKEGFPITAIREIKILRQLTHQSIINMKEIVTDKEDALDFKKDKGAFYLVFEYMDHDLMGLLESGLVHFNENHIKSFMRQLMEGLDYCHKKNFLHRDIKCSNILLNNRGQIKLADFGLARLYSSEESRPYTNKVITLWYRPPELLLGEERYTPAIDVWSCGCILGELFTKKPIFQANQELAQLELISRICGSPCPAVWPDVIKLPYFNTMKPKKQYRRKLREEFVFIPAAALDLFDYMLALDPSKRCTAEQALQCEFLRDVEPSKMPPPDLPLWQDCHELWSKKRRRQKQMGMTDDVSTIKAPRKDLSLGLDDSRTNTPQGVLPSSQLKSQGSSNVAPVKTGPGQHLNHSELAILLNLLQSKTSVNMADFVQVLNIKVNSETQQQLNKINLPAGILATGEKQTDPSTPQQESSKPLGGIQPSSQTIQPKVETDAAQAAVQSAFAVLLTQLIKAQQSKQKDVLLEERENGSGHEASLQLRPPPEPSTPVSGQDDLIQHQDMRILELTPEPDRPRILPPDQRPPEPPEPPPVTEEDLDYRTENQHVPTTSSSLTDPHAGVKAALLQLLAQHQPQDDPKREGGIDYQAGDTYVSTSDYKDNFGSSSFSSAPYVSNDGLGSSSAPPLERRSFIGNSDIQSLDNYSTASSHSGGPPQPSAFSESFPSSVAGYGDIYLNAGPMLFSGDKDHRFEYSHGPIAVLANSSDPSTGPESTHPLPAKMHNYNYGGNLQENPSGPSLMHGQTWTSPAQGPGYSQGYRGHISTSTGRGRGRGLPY
How it was run: as §1

[5] = molecular target: T5, kinases of the scanMAX Kinase assay panel (Homo sapiens, UniProt P35968); conditions: kinase VEGFR2; 1 uM in DMSO
T5 construct: purchased DiscoverX Co. (contract measurement) scanMAX Kinase assay panel
How it was run: as §1

[6] = molecular target: T6, kinases of the scanMAX Kinase assay panel (Homo sapiens, UniProt O95747); conditions: OSR1; 1 uM
T6 construct: purchased DiscoverX Co. (contract measurement) scanMAX Kinase assay panel
How it was run: as §1

[7] = molecular target: T7, kinases of the scanMAX Kinase assay panel (Homo sapiens, UniProt Q9UM73, L1196M); conditions: ALK(L1196M); 1 uM
T7 construct: purchased DiscoverX Co. (contract measurement) scanMAX Kinase assay panel
T7 sequence (Q9UM73 19-1620 L1196M): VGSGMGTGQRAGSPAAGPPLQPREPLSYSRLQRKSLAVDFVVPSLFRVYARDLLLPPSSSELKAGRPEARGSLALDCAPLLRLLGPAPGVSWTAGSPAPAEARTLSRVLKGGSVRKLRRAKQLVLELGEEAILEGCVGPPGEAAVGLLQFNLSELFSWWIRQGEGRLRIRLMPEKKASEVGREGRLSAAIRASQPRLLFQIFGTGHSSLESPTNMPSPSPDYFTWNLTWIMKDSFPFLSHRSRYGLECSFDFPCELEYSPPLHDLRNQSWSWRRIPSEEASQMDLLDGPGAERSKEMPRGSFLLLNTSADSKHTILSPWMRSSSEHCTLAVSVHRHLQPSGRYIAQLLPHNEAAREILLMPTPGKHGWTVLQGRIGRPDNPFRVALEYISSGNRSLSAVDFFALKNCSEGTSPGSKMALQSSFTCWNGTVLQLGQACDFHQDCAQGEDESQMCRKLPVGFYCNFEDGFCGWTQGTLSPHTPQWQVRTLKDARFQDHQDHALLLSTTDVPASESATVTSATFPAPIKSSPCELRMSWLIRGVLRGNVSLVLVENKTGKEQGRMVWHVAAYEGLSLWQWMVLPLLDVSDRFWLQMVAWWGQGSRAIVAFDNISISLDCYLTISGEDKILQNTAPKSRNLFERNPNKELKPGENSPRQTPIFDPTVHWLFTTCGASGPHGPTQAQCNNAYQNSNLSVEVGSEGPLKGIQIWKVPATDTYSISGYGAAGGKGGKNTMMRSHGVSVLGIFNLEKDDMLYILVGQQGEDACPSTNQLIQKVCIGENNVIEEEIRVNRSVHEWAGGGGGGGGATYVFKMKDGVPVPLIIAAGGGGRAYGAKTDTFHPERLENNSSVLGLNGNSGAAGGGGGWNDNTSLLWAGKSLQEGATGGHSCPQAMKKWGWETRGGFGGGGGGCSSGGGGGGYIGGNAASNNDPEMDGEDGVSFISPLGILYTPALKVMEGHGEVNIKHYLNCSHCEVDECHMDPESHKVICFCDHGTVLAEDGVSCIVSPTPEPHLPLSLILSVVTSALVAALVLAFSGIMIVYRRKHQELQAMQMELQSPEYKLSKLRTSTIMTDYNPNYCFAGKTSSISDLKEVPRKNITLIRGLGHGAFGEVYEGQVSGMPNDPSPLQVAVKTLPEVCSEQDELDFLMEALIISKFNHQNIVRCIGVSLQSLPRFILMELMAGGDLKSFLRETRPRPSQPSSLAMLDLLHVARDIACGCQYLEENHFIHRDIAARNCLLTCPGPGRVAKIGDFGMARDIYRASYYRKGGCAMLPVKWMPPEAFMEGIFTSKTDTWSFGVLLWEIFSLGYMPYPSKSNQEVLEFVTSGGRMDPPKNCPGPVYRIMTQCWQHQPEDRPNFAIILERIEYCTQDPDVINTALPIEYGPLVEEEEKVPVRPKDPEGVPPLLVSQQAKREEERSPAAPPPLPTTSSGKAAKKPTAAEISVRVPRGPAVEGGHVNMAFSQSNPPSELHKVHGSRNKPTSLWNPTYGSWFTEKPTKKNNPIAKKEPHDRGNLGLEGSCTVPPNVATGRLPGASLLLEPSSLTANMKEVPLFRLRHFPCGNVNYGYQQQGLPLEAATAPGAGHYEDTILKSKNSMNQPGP
How it was run: as §1

[8] = molecular target: T8, kinases of the scanMAX Kinase assay panel (Homo sapiens, UniProt P25098); conditions: GRK2; 1 uM
T8 construct: purchased DiscoverX Co. (contract measurement) scanMAX Kinase assay panel
T8 sequence (P25098 1-689): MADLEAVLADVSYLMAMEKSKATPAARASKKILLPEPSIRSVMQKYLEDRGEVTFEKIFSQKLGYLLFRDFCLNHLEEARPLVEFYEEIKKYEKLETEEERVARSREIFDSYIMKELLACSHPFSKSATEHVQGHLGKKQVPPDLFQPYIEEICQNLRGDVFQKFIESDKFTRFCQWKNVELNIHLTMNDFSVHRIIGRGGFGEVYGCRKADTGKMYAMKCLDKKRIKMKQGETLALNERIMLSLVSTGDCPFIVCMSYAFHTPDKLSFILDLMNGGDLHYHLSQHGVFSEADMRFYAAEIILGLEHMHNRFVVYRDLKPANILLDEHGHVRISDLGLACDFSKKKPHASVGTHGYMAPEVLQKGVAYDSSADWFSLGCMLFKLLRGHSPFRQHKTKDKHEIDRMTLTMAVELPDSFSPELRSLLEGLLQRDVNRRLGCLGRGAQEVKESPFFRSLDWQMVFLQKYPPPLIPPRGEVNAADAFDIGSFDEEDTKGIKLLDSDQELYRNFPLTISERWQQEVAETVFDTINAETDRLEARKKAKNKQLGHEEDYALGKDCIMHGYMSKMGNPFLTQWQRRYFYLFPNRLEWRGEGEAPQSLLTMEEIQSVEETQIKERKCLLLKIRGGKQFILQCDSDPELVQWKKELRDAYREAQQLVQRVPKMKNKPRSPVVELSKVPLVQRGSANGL
How it was run: as §1

[9] = molecular target: T9, kinases of the scanMAX Kinase assay panel (Homo sapiens, UniProt P36894); conditions: BMPR1A; 1 uM
T9 construct: purchased DiscoverX Co. (contract measurement) scanMAX Kinase assay panel
T9 sequence (P36894 24-532): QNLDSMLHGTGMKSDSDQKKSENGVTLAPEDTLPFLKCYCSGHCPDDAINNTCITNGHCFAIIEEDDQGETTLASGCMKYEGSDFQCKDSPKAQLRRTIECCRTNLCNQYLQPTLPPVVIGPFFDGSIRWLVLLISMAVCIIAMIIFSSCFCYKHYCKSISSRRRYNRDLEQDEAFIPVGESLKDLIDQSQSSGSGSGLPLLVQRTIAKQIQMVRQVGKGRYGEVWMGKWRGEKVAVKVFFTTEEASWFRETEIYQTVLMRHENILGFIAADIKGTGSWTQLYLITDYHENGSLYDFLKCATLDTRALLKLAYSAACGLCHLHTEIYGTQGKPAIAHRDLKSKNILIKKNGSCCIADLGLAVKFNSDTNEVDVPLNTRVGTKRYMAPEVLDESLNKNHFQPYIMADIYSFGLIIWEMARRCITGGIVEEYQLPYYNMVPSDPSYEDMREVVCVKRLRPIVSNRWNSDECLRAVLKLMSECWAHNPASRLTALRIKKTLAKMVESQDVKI
How it was run: as §1

[10] = molecular target: T10, kinases of the scanMAX Kinase assay panel (Homo sapiens, UniProt Q8IVH8); conditions: MAP4K3; 1 uM
T10 construct: purchased DiscoverX Co. (contract measurement) scanMAX Kinase assay panel
T10 sequence (Q8IVH8 1-894): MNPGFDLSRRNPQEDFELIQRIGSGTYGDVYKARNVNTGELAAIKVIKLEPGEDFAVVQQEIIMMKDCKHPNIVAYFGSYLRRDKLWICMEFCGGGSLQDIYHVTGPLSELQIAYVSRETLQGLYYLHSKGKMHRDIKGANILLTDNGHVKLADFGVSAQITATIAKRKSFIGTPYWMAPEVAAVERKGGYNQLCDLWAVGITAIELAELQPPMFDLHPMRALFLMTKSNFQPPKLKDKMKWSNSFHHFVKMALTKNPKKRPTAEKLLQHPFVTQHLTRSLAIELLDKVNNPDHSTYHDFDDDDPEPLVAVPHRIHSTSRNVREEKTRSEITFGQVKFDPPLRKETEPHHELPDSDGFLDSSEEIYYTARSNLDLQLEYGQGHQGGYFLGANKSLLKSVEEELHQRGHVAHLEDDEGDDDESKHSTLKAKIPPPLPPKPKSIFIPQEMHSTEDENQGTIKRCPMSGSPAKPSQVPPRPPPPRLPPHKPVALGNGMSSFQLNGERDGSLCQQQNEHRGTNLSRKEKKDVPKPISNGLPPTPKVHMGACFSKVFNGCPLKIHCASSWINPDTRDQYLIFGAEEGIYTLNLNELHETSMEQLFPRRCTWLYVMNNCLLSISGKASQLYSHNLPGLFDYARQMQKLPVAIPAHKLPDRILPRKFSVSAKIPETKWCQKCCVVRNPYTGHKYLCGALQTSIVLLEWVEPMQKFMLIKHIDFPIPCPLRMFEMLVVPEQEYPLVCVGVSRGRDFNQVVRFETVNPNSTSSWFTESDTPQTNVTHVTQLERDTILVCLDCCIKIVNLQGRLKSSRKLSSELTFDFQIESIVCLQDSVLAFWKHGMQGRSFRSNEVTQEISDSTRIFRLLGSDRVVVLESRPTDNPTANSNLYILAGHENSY
How it was run: as §1

Row | SMILES | remaining binding at 1 µM [1] [%] | remaining binding at 1 µM [2] [%] | remaining binding at 1 µM [3] [%] | remaining binding at 1 µM [4] [%] | remaining binding at 1 µM [5] [%] | remaining binding at 1 µM [6] [%] | remaining binding at 1 µM [7] [%] | remaining binding at 1 µM [8] [%] | remaining binding at 1 µM [9] [%] | remaining binding at 1 µM [10] [%]
1 | CCNc1nc(Nc2ccc(C(=O)N3CCC(N4CCOCC4)CC3)cc2OC)nc2[nH]cc(C(F)(F)F)c12 [Example 104, (4-((4-(ethylamino)-5-(trifluoromethyl)-7H-pyrrolo[2,3-d]pyrimidine-2-yl)amino)-3-methoxyphenyl)(4-morpholinopiperidine-1-yl)methanone] | 89 | 96 | 100 | 100 | 73 | 7.5 | 0.75 | 96 | 100 | 100
2 | CNc1nc(Nc2ccc(C(=O)N3CCOCC3)cc2OC)nc2[nH]cc(C#N)c12 [Example 1, 2-((2-methoxy-4-(morpholine-4-carbonyl)phenyl)amino)-4-(methylamino)-7H-pyrrolo[2,3-d]pyrimidine-5-carbonitrile] | 57 | 82 | 93 | 82 | 63 | 21 | 33 | 97 | 94 | 97
3 | CC1(Nc2nc(Nc3cnn([C@H]4CCN(C5COC5)C[C@@H]4F)c3Cl)nc3[nH]cc(C#N)c23)CC1 [Example 52, 2-((5-chloro-1-((3S,4S)-3-fluoro-1-(oxetane-3-yl)piperidine-4-yl)-1H-pyrazole-4-yl)amino)((1-methylcyclopropyl)amino)-7H-pyrrolo[2,3-d]pyrimidine-5-carbonitrile] | 99 | 100 | 100 | 97 | 3.7 | 0.45 | 9.9 | 45 | 100 | 3.3
